# Laboratory results reported in patent publication US8802597B2, “Herbicidal pyrimidines” (E I du Pont de Nemours and Company, priority 2003, dated 2014).
# Read-outs that look alike come from different tables or passages of the source.
# Key:
# Type in all cases: in vivo
# [1] = test system: blackgrass (Alopecurus myosuroides); test: Test B postemergence; details: Alopecurus myosuroides, post-emergence
# In short: (§1)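 Test chemicals in a non-phytotoxic solvent mixture with surfactant were applied preemergence to planted seeds and postemergence to plants 2 to 18 cm tall (1- to 4-leaf stage). After 13 to 15 days in a greenhouse, injury was visually rated against untreated controls on a 0 to 100 scale.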
# wild oat (Avena fatua) = test: Test B postemergence; details: Avena fatua, post-emergence
# In short: as §1
# [2] = test system: barnyardgrass (Echinochloa crus-galli); test: Test B flooded paddy test; details: Echinochloa crus-galli, Flood, 1000 g ai/ha; scale 0 (no effect) to 100 (complete control); read-out: Plant response rating, Barnyardgrass
# In short: (§2)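 Rice, umbrella sedge, duck salad and barnyardgrass grown to 2-leaf stage under flooded paddy conditions and treated with formulated test chemicals. Kept in greenhouse 13–15 days, then visually rated against untreated controls on a 0–100 scale (0 no effect, 100 complete control).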
# rice (Oryza sativa) = test: Test B flooded paddy test; details: Oryza sativa, Flood, 1000 g ai/ha; scale 0 to 100; read-out: Plant response rating, Rice
# In short: as §2
# [3] = test system: umbrella sedge (Cyperus difformis); test: Test B flooded paddy test; details: Cyperus difformis, Flood, 1000 g ai/ha; scale 0 to 100; read-out: Plant response rating, Sedge, Umbrella
# In short: as §2
# [4] = test system: duck salad (Heteranthera limosa); test: Test B flooded paddy test; details: Heteranthera limosa, Flood, 1000 g ai/ha; scale 0 to 100; read-out: Plant response rating, Ducksalad
# In short: as §2
# [5] = test system: giant foxtail (Setaria faberii); test: Test B pre/postemergence; details: Setaria faberi; for pest or weed control at 125 g/ha: 125 g ai/ha; for pest or weed control at 500 g/ha: 500 g ai/ha
# In short: as §1
# [6] = test system: barnyardgrass (Echinochloa crus-galli); test: Test B pre/postemergence; details: Echinochloa crus-galli; for pest or weed control at 125 g/ha: 125 g ai/ha; for pest or weed control at 500 g/ha: 500 g ai/ha
# In short: as §1
# [7] = test system: crabgrass (Digitaria sanguinalis); test: Test B pre/postemergence; details: Digitaria sanguinalis; for pest or weed control at 125 g/ha: 125 g ai/ha; for pest or weed control at 500 g/ha: 500 g ai/ha
# In short: as §1
# [8] = test system: cocklebur (Xanthium strumarium); test: Test B pre/postemergence; details: Xanthium strumarium; for pest or weed control at 125 g/ha: 125 g ai/ha; for pest or weed control at 500 g/ha: 500 g ai/ha
# In short: as §1
# [9] = test system: Surinam grass (Brachiaria decumbens); test: Test B pre/postemergence; details: Urochloa decumbens; for pest or weed control at 125 g/ha: 125 g ai/ha; for pest or weed control at 500 g/ha: 500 g ai/ha
# In short: as §1
# [10] = test system: lambsquarters (Chenopodium album); test: Test B pre/postemergence; details: Chenopodium album; for pest or weed control at 125 g/ha: 125 g ai/ha; for pest or weed control at 500 g/ha: 500 g ai/ha
# In short: as §1
# [11] = test system: pigweed (Amaranthus retroflexus); test: Test B pre/postemergence; details: Amaranthus retroflexus; for pest or weed control at 125 g/ha: 125 g ai/ha; for pest or weed control at 500 g/ha: 500 g ai/ha
# In short: as §1
# [12] = test system: wheat (Triticum aestivum); test: Test B pre/postemergence; details: Triticum aestivum; for plant injury at 500 g/ha: 500 g ai/ha
# In short: as §1
# [13] = test system: velvetleaf (Abutilon theophrasti); test: Test B pre/postemergence; details: Abutilon theophrasti; for pest or weed control at 125 g/ha: 125 g ai/ha; for pest or weed control at 500 g/ha: 500 g ai/ha
# In short: as §1
# [14] = test system: morningglory (Ipomoea coccinea); test: Test B pre/postemergence; details: Ipomoea; for pest or weed control at 125 g/ha: 125 g ai/ha; for pest or weed control at 500 g/ha: 500 g ai/ha
# In short: as §1
# corn (Zea mays) = test: Test B pre/postemergence; details: Zea mays
# In short: as §1
smiles,measurement,setting,value
CNc1nc(C2CC2)nc(C(=O)OC)c1Br [Compound 5],pest or weed control at 125 g/ha,"[1]; 125 g ai/ha, scale 0 to 100 (0 no effect, 100 complete control), read-out: Blackgrass plant response rating",70%
same,pest or weed control at 500 g/ha,"[1]; 500 g ai/ha, scale 0 to 100, read-out: Plant response rating, Blackgrass",80%
same,pest or weed control at 125 g/ha,"wild oat (Avena fatua); 125 g ai/ha, scale 0 to 100 (0 no effect, 100 complete control), read-out: Oat, Wild plant response rating",40%
same,pest or weed control at 500 g/ha,"wild oat (Avena fatua); 500 g ai/ha, scale 0 to 100, read-out: Plant response rating, Oat, Wild",60%
same,pest or weed control at 1000 g/ha,[2],50%
same,plant injury at 1000 g/ha,rice (Oryza sativa),0%
same,pest or weed control at 1000 g/ha,[3],90%
same,pest or weed control at 1000 g/ha,[4],90%
same,pest or weed control at 125 g/ha,"[5]; post-emergence, Postemergence, scale 0 to 100 (0 no effect, 100 complete control), read-out: Foxtail, Giant plant response rating",40%
same,pest or weed control at 500 g/ha,"[5]; post-emergence, Postemergence, scale 0 to 100, read-out: Plant response rating, Foxtail, Giant",50%
same,pest or weed control at 125 g/ha,"[5]; pre-emergence, Preemergence, scale 0 to 100 (0 no effect, 100 complete control), read-out: Plant response rating, Foxtail, Giant",0%
same,pest or weed control at 500 g/ha,"[5]; pre-emergence, Preemergence, scale 0 to 100 (0 no effect, 100 complete control), read-out: Foxtail, Giant plant response rating",10%
same,pest or weed control at 125 g/ha,"[6]; post-emergence, Postemergence, scale 0 to 100 (0 no effect, 100 complete control), read-out: Barnyardgrass plant response rating",50%
same,pest or weed control at 500 g/ha,"[6]; post-emergence, Postemergence, scale 0 to 100, read-out: Plant response rating, Barnyardgrass",90%
same,pest or weed control at 125 g/ha,"[6]; pre-emergence, Preemergence, scale 0 to 100 (0 no effect, 100 complete control), read-out: Plant response rating, Barnyardgrass",10%
same,pest or weed control at 500 g/ha,"[6]; pre-emergence, Preemergence, scale 0 to 100 (0 no effect, 100 complete control), read-out: Barnyardgrass plant response rating",30%
same,pest or weed control at 125 g/ha,"[7]; post-emergence, Postemergence, scale 0 to 100 (0 no effect, 100 complete control), read-out: Crabgrass plant response rating",50%
same,pest or weed control at 500 g/ha,"[7]; post-emergence, Postemergence, scale 0 to 100, read-out: Plant response rating, Crabgrass",90%
same,pest or weed control at 125 g/ha,"[7]; pre-emergence, Preemergence, scale 0 to 100 (0 no effect, 100 complete control), read-out: Plant response rating, Crabgrass",20%
same,pest or weed control at 500 g/ha,"[7]; pre-emergence, Preemergence, scale 0 to 100 (0 no effect, 100 complete control), read-out: Crabgrass plant response rating",70%
same,pest or weed control at 125 g/ha,"[8]; post-emergence, Postemergence, scale 0 to 100 (0 no effect, 100 complete control), read-out: Cocklebur plant response rating",80%
same,pest or weed control at 500 g/ha,"[8]; post-emergence, Postemergence, scale 0 to 100, read-out: Plant response rating, Cocklebur",100%
same,pest or weed control at 125 g/ha,"[8]; pre-emergence, Preemergence, scale 0 to 100 (0 no effect, 100 complete control), read-out: Plant response rating, Cocklebur",70%
same,pest or weed control at 500 g/ha,"[8]; pre-emergence, Preemergence, scale 0 to 100 (0 no effect, 100 complete control), read-out: Cocklebur plant response rating",80%
same,pest or weed control at 125 g/ha,"[9]; post-emergence, Postemergence, scale 0 to 100 (0 no effect, 100 complete control), read-out: Surinam Grass plant response rating",50%
same,pest or weed control at 500 g/ha,"[9]; post-emergence, Postemergence, scale 0 to 100, read-out: Plant response rating, Surinam Grass",80%
same,pest or weed control at 125 g/ha,"[9]; pre-emergence, Preemergence, scale 0 to 100 (0 no effect, 100 complete control), read-out: Plant response rating, Surinam Grass",0%
same,pest or weed control at 500 g/ha,"[9]; pre-emergence, Preemergence, scale 0 to 100 (0 no effect, 100 complete control), read-out: Surinam Grass plant response rating",10%
same,pest or weed control at 125 g/ha,"[10]; post-emergence, Postemergence, scale 0 to 100 (0 no effect, 100 complete control), read-out: Lambsquarters plant response rating",100%
same,pest or weed control at 500 g/ha,"[10]; post-emergence, Postemergence, scale 0 to 100, read-out: Plant response rating, Lambsquarters",100%
same,pest or weed control at 125 g/ha,"[10]; pre-emergence, Preemergence, scale 0 to 100 (0 no effect, 100 complete control), read-out: Plant response rating, Lambsquarters",90%
same,pest or weed control at 500 g/ha,"[10]; pre-emergence, Preemergence, scale 0 to 100 (0 no effect, 100 complete control), read-out: Lambsquarters plant response rating",100%
same,pest or weed control at 125 g/ha,"[11]; post-emergence, Postemergence, scale 0 to 100 (0 no effect, 100 complete control), read-out: Pigweed plant response rating",90%
same,pest or weed control at 500 g/ha,"[11]; post-emergence, Postemergence, scale 0 to 100, read-out: Plant response rating, Pigweed",100%
same,pest or weed control at 125 g/ha,"[11]; pre-emergence, Preemergence, scale 0 to 100 (0 no effect, 100 complete control), read-out: Plant response rating, Pigweed",90%
same,pest or weed control at 500 g/ha,"[11]; pre-emergence, Preemergence, scale 0 to 100 (0 no effect, 100 complete control), read-out: Pigweed plant response rating",90%
same,plant injury at 125 g/ha,"[12]; post-emergence, Postemergence, 125 g ai/ha, scale 0 to 100 (0 no effect, 100 complete control), read-out: Wheat plant response rating",50%
same,plant injury at 500 g/ha,"[12]; post-emergence, Postemergence, scale 0 to 100, read-out: Plant response rating, Wheat",60%
same,plant injury at 500 g/ha,"[12]; pre-emergence, Preemergence, scale 0 to 100 (0 no effect, 100 complete control), read-out: Wheat plant response rating",50%
same,pest or weed control at 125 g/ha,"[13]; post-emergence, Postemergence, scale 0 to 100 (0 no effect, 100 complete control), read-out: Velvetleaf plant response rating",70%
same,pest or weed control at 500 g/ha,"[13]; post-emergence, Postemergence, scale 0 to 100, read-out: Plant response rating, Velvetleaf",90%
same,pest or weed control at 125 g/ha,"[13]; pre-emergence, Preemergence, scale 0 to 100 (0 no effect, 100 complete control), read-out: Plant response rating, Velvetleaf",70%
same,pest or weed control at 500 g/ha,"[13]; pre-emergence, Preemergence, scale 0 to 100 (0 no effect, 100 complete control), read-out: Velvetleaf plant response rating",90%
same,pest or weed control at 125 g/ha,"[14]; post-emergence, Postemergence, scale 0 to 100 (0 no effect, 100 complete control), read-out: Morningglory plant response rating",100%
same,pest or weed control at 500 g/ha,"[14]; post-emergence, Postemergence, scale 0 to 100, read-out: Plant response rating, Morningglory",100%
same,pest or weed control at 125 g/ha,"[14]; pre-emergence, Preemergence, scale 0 to 100 (0 no effect, 100 complete control), read-out: Plant response rating, Morningglory",70%
same,pest or weed control at 500 g/ha,"[14]; pre-emergence, Preemergence, scale 0 to 100 (0 no effect, 100 complete control), read-out: Morningglory plant response rating",80%
same,plant injury at 125 g/ha,"corn (Zea mays); post-emergence, Postemergence, 125 g ai/ha, scale 0 to 100 (0 no effect, 100 complete control), read-out: Corn plant response rating",30%
same,"Corn plant response rating (crop injury, 0 = no effect, 100 = complete kill) at 500 g/ha","corn (Zea mays); post-emergence, Postemergence, 500 g ai/ha, scale 0 to 100",90%
same,"Corn plant response rating (crop injury, 0 = no effect, 100 = complete kill) at 125 g/ha","corn (Zea mays); pre-emergence, Preemergence, 125 g ai/ha, scale 0 to 100 (0 no effect, 100 complete control)",0%
same,plant injury at 500 g/ha,"corn (Zea mays); pre-emergence, Preemergence, 500 g ai/ha, scale 0 to 100 (0 no effect, 100 complete control), read-out: Corn plant response rating",70%
